{
  "source": "ChEMBL document CHEMBL6096665",
  "about": "(Eur J Med Chem, 2025)",
  "molecular_target": "T1, Bile acid receptor (Homo sapiens, UniProt Q96RI1)",
  "T1 sequence (Q96RI1 whole entry)": "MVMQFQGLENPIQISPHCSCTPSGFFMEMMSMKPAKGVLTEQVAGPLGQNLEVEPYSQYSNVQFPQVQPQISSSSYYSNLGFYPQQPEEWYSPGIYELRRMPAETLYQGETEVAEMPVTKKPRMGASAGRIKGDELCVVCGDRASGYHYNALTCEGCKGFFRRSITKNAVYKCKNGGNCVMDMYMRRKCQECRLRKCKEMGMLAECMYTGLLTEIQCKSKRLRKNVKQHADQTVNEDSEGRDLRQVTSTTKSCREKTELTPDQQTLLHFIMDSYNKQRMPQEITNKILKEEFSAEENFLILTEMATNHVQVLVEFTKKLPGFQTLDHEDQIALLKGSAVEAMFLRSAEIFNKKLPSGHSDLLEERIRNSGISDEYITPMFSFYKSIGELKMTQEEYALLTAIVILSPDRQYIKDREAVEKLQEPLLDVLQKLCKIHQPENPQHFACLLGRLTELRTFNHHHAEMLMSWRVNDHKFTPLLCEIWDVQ",
  "experiment": "Agonist activity at FXR-LBD (unknown origin) incubated for 3 hrs using fluorescein coactivator peptide by FRET assay",
  "data": [
    {"smiles": "O=C(O)c1ccc(OCc2ccc(OCc3c(-c4c(Cl)cccc4Cl)noc3C3CC3)cc2)cc1", "values": [
      {"measurement": "EC50", "value": 0.253, "unit": "µM"}
    ]}
  ]
}
